These molecules were tested against T1, PPARG (peroxisome proliferator activated receptor-gamma), GST-PPARG-LBD (Homo sapiens, UniProt P37231) (assay: LanthaScreen TR-FRET PPARG Competitive Binding Assay). Conditions: degree of binding activity.
T1 construct: 15 μL of 5 nM GST-PPARG-LBD and 5 nM Tb-GST-antibody were added; purchased Invitrogen PV4894
T1 sequence (P37231 238-503 limits assumed): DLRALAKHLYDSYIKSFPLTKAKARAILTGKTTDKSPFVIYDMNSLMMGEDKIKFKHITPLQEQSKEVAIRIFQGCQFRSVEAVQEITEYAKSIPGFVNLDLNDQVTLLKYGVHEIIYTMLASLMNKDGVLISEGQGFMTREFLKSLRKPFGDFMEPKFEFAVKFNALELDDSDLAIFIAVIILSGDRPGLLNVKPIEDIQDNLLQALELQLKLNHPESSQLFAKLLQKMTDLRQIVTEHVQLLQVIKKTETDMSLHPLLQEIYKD
Parameters: key: “+” indicates the degree of the binding activity, and as the number of “+” increases, the binding activity is stronger; ++: “+” indicates the degree of the binding activity, and as the number of “+” increases, the binding activity is stronger; +++: “+” indicates the degree of the binding activity, and as the number of “+” increases, the binding activity is stronger; ++++: “+” indicates the degree of the binding activity, and as the number of “+” increases, the binding activity is stronger
Summary of the method: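 GST-tagged human PPARG LBD in a TR-FRET competitive binding kit, 1 h at room temperature. Read-out is the 518/488 nm emission ratio (340 nm excitation); activity = 100% − compound ratio/vehicle ratio, compared with rosiglitazone.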

Row | SMILES | Binding assay (1 μLM)
1 | NC(=O)c1ccccc1-c1ccc(CN2CCCc3cc(C(=O)NCc4cccc(OC(F)(F)F)c4)ccc32)cc1 [Example 54, 1-((2′-carbamoyl-[1,1′-biphenyl]-4-yl)methyl)-N-(3-(trifluoromethoxy)benzyl)-1,2,3,4-tetrahydroquinoline-6-carboxamide] | +++
2 | C[C@H](NC(=O)c1ccc2c(c1)CCCN2Cc1cccc(-c2ccccc2C(=O)O)c1F)c1ccc([N+](=O)[O-])cc1 [Example 128, (S)-2′-fluoro-3′-((6-((1-(4-nitrophenyl)ethyl)carbamoyl)-3,4-dihydroquinoline-1(2H)-yl)methyl)-[1,1′-biphenyl]-2-caboxylic acid] | ++
3 | C[C@H](NC(=O)c1ccc2c(c1)CCCN2Cc1ccc(-c2ccccc2C(=O)O)cc1)c1ccc(F)cc1 [Example 6, (S)-4′-((6-((1-(4-fluorophenyl)ethyl)carbamoyl)-3,4-dihydroquinoline-1(2H)-yl)methyl)-[1,1′-biphenyl]-2-caboxylic acid] | +++
4 | C[C@H](NC(=O)c1ccc2c(c1)CCCN2Cc1cc(-c2ccccc2C(=O)O)ccc1F)c1ccc([N+](=O)[O-])cc1 [Example 136, (S)-4′-fluoro-3′-((6-((1-(4-nitrophenyl)ethyl)carbamoyl)-3,4-dihydroquinoline-1(2H)-yl)methyl)-[1,1′-biphenyl]-2-caboxylic acid] | +++
5 | C[C@H](NC(=O)c1ccc2c(c1)CCCN2Cc1cccc(-c2ccccc2C(=O)O)c1)c1ccccc1 [Example 116, (S)-3′-((6-((1-phenylethyl)carbamoyl)-3,4-dihydroquinoline-1(2H)-yl)methyl)-[1,1′-biphenyl]-2-carboxylic acid] | +++
6 | O=C(NCc1ccccc1)c1ccc2c(c1)OCCN2Cc1ccc(-c2ccccc2C(=O)O)cc1 [Example 67, 4′-((7-(benzylcarbamoyl)-2H-benzo[b][1,4]oxazine-4(38)-yl)methyl)-[1,1′-biphenyl]-2-carboxylic acid] | ++
7 | C[C@H](NC(=O)c1ccc2c(c1)OCCN2Cc1ccc(-c2ccccc2C(=O)O)cc1)c1ccc(Br)cc1 [Example 61, (S)-4′-((7-((1-(4-bromophenyl)ethyl)carbamoyl)-2H-benzo[b][1,4]oxazine-4(3H)-yl)methyl)-[1,1′-biphenyl]-2-carboxylic acid] | ++
8 | Cc1cc(F)ccc1[C@H](C)NC(=O)c1ccc2c(c1)CCCN2Cc1ccc(-c2ccccc2C(=O)O)cc1 [Example 4, (S)-4′-((6-((1-(4-fluoro-2-methylphenyl)ethyl)carbamoyl)-3,4-dihydroquinoline-1(2H)-yl)methyl)-[1,1′-biphenyl]-2-carboxylic acid] | +++
9 | O=C(NCc1ccncc1)c1ccc2c(c1)CCCN2Cc1ccc(-c2ccccc2C(=O)O)cc1 [Example 27, 4′-((6-((pyridine-4-ylmethyl)carbamoyl)-3,4-dihydroquinoline-1(2H)-yl)methyl)-[1,1′-biphenyl]-2-carboxylic acid] | +
10 | C[C@H](NC(=O)c1ccc2c(c1)OCCN2Cc1ccc(-c2ccccc2C(=O)O)cc1)c1cccc(OC(F)(F)F)c1 [Example 85, (S)-4′-((7-((1-(3-(trifluoromethoxy)phenyl)ethyl)carbamoyl)-2H-benzo[b][1,4]oxazine-4(3H)-yl)methyl)-[1,1′-biphenyl]-2-carboxylic acid] | +++
11 | C[C@H](NC(=O)c1ccc2c(c1)CCCN2Cc1ccc(-c2ccccc2C(N)=O)cc1F)c1ccccc1 [Example 107, (S)-1-((2′-carbamoyl-3-fluoro-[1,1′-biphenyl]-4-yl)methyl)-N-(1-phenylethyl)-1,2,3,4-tetrahydroquinoline-6-carboxamide] | +++
12 | C[C@H](NC(=O)c1ccc2c(c1)CCCN2Cc1cccc(-c2ccccc2C(N)=O)c1F)c1ccc2ccccc2c1 [Example 132, (S)-1-((2′-carbamoyl-2-fluoro-[1,1′-biphenyl]-3-yl)methyl)-N-(1-(naphthalene-2-yl)ethyl)-1,2,3,4-tetrahydroquinoline-6-carboxamide] | ++++
13 | Cc1ccc([C@H](C)NC(=O)c2ccc3c(c2)CCCN3Cc2ccccc2-c2ccc(C(=O)O)cc2)cc1F [Example 154, (S)-2′-((6-((1-(3-fluoro-4-methylphenyl)ethyl)carbamoyl)-3,4-dihydroquinoline-1(2H)-yl)methyl)-[1,1′-biphenyl]-4-carboxylic acid] | +
14 | Cc1ccc([C@H](C)NC(=O)c2ccc3c(c2)CCCN3Cc2ccccc2-c2ccc(C(N)=O)cc2)cc1F [Example 158, (S)-1-((4′-carbamoyl-[1,1′-biphenyl]-2-yl)methyl)-N-(1-(3-fluoro-4-methylphenyl)ethyl)-1,2,3,4-tetrahydroquinoline-6-carboxamide] | +
15 | C[C@H](NC(=O)c1ccc2c(c1)CCCN2Cc1ccccc1-c1ccc(C(N)=O)cc1)c1ccc([N+](=O)[O-])cc1 [Example 159, (S)-1-((4′-carbamoyl-[1,1′-biphenyl]-2-yl)methyl)-N-(1-(4-nitrophenyl)ethyl)-1,2,3,4-tetrahydroquinoline-6-carboxamide] | +
16 | C[C@H](NC(=O)c1ccc2c(c1)CCCN2Cc1cccc(-c2ccccc2C(N)=O)c1)c1ccc(C#N)cc1 [Example 122, (S)-1-((2′-carbamoyl-[1,1′-biphenyl]-3-yl)methyl)-N-(1-(4-cyanophenyl)ethyl)-1,2,3,4-tetrahydroquinoline-6-carboxamide] | ++
17 | Cc1ccc([C@H](C)NC(=O)c2ccc3c(c2)CCCN3Cc2cccc(-c3ccccc3C(=O)O)c2)cc1F [Example 121, (S)-3′-((6-((1-(3-fluoro-4-methylphenyl)ethyl)carbamoyl)-3,4-dihydroquinoline-1(2H)-yl)methyl)-[1,1′-biphenyl]-2-carboxylic acid] | +++
18 | Cc1ccc([C@H](C)NC(=O)c2ccc3c(c2)CCCN3Cc2cccc(-c3ccccc3C(=O)O)c2F)cc1F [Example 130, (S)-2′-fluoro-3′-((6-((1-(3-fluoro-4-methylphenyl)ethyl)carbamoyl)-3,4-dihydroquinoline-1(2H)-yl)methyl)-[1,1′-biphenyl]-2-caboxylic acid] | +++
19 | Cc1ccc([C@H](C)NC(=O)c2ccc3c(c2)OCCN3Cc2ccc(-c3ccccc3C(=O)O)c(F)c2)cc1F [Example 164, (S)-2′-fluoro-4′-((7-(((3-fluoro-4-methylphenyl)ethyl)carbamoyl)-2H-benzo[b][1,4]oxazine-4(3)-yl)methyl)-[1,1′-biphenyl]-2-carboxylic acid] | +++
20 | C[C@H](NC(=O)c1ccc2c(c1)CCCN2Cc1ccc(-c2ccccc2C(=O)O)cc1)c1cccc(Cl)c1 [Example 9, (S)-4′-((6-((1-(3-chlorophenyl)ethyl)carbamoyl)-3,4-dihydroquinoline-1(2H)-yl)methyl)-[1,1′-biphenyl]-2-caboxylic acid] | ++++
21 | O=C(NCc1ccc(Br)cc1)c1ccc2c(c1)CCCN2Cc1ccc(-c2ccccc2C(=O)O)cc1 [Example 31, 4′-((6-((4-bromobenzyl)carbamoyl)-3,4-dihydroquinoline-1 (2H)-yl)methyl)-[1,1′-biphenyl]-2-carboxylic acid] | ++++
